{"source": "patent US20260294839A1", "about": "“COMPOSITION AND METHOD OF MAKING” (priority 2023, published 2026)", "key": {"[1]": {"details": "if it accumulates excessively at the wound site; cited from earlier work"}, "Staphylococcus aureus": {"system": "Staphylococcus aureus", "test": "Non-peroxide activity (NPA) plate assay with catalase", "type": "cell-based", "details": "duplicate or triplicate mean; invention sample 1 fresh, 2-5 stored 234 days (37° C., room temperature, fridge, freezer)", "description": "In this test, the enzyme catalase was added to the sample to rapidly break down hydrogen peroxide to water and oxygen. […] The test was carried out using a Gram-positive bacteria, Staphylococcus aureus. The result is a value in % w/v relative to phenol standards. Two honey samples and several control samples consisting of glycerol with additional components were tested alongside the composition of the invention samples and the results are shown in Table 4. Samples were run in duplicate or triplicate and the mean result calculated.\n[…] of the composition of the invention were tested: • Sample 1: a freshly made sample • Sample 2: stored for 234 days in a 37° C. incubator • Sample 3: stored for 234 days at room temperature • Sample 4: stored for 234 days in a fridge • Sample 5: stored for 234 days in a freezer\nThe NPA assay was used, as previously in Example 3."}, "[2]": {"system": "consortium of S. aureus, E. coli and P. aeruginosa", "test": "ISO 11930 preservative effectiveness, bacterial consortium", "type": "cell-based", "details": "for log reduction at 50 % v/v: 50.0% v/v aqueous; for log reduction at 5 % / log reduction at 15 % / log reduction at 50 % / Nx: diluted in aqueous solution; for log reduction at 5 % / log reduction at 15 % / log reduction at 50 %: read-out: Rx (log reduction)", "description": "(§1) The ISO 11930 industry standard test was to used measure the effectiveness of the compound to act as a preservative (growth inhibition) for up to 28 days (as tested). Preservative action is used to prevent spoilage and contamination of food, cosmetics, and drugs. First, compositions of the invention were diluted in Glycerol (Tables 7 to 8).\n(§2) Next, compositions of the invention were diluted in aqueous solution.\nAccording to ISO 11930, compositions of the invention produced a log reduction of >4.14 logs at a concentration of 50.0% v/v, 15.0% v/v, and 5.0% v/v as tested after 7 days, 14 days and 28 days at 25° C. against a consortium of Staphylococcus aureus ATCC 6538, Escherichia coli NCTC 10536 and Pseudomonas aeruginosa ATCC 15442 (Table 9). […]"}, "[3]": {"system": "consortium of C. albicans and A. brasiliensis", "test": "ISO 11930 preservative effectiveness, fungal consortium", "type": "cell-based", "details": "for log reduction at 5 % / log reduction at 15 % / log reduction at 50 % / Nx: diluted in aqueous solution; for log reduction at 5 % / log reduction at 15 % / log reduction at 50 %: read-out: Rx (log reduction)", "description": "as §1, §2\nAlso according to ISO 11930, compositions of the invention produced a log reduction of >3.27 logs at a concentration of 50.0% v/v, 15.0% v/v, and 5.0% v/v as tested after 7 days, 14 days and 28 days at 25° C. against a consortium of Candida albicans ATCC 10231 and Aspergillus brasiliensis ATCC 16404 (Table 10). […]"}, "[4]": {"details": "ISO 11930, aqueous solution, 25° C."}}, "note": "Like-named read-outs stand apart in the source and are kept apart here."}
{"smiles": "[Ag]", "note": "[Silver, silver]", "values": [{"measurement": "effect on wound healing", "setting": "[1]", "value": "inhibit healing"}]}
{"smiles": "OCC(O)CO", "note": "[Glycerol, glycerol]", "values": [{"measurement": "NPA, Mean Result", "setting": "Staphylococcus aureus", "value": "<9.5", "unit": "% w/v phenol equivalent"}, {"measurement": "level at which it is a preservative, bacteria", "setting": "[2]", "value": "> 50.0", "unit": "% V/V"}, {"measurement": "log reduction at 50 % v/v", "setting": "[2]; 14 days and 28 days, 25° C.", "value": "> 4.21"}, {"measurement": "log reduction at 50 % v/v", "setting": "[2]; 168 h, 7 days, 25° C.", "value": 3.67}, {"measurement": "log reduction at 5 %", "setting": "[2]; 168 h, 5% (V/V), day 7", "value": "< 2.84"}, {"measurement": "log reduction at 15 %", "setting": "[2]; 168 h, 15% (V/V), day 7", "value": "< 2.84"}, {"measurement": "log reduction at 50 %", "setting": "[2]; 168 h, 50% (V/V), day 7", "value": 3.67}, {"measurement": "log reduction at 5 %", "setting": "[2]; 336 h, 5% (V/V), day 14", "value": "< 2.84"}, {"measurement": "log reduction at 15 %", "setting": "[2]; 336 h, 15% (V/V), day 14", "value": 3.28}, {"measurement": "log reduction at 50 %", "setting": "[2]; 336 h, 50% (V/V), day 14", "value": "> 4.21"}, {"measurement": "log reduction at 5 %", "setting": "[2]; 672 h, 5% (V/V), day 28", "value": "< 2.84"}, {"measurement": "log reduction at 15 %", "setting": "[2]; 672 h, 15% (V/V), day 28", "value": "> 4.21"}, {"measurement": "log reduction at 50 %", "setting": "[2]; 672 h, 50% (V/V), day 28", "value": "> 4.21"}, {"measurement": "Preservation Criteria A for bacteria", "setting": "[2]; [4]", "value": "conforms to Preservation Criteria A for bacteria"}, {"measurement": "Nx", "setting": "[2]; 5% (V/V), day 0", "value": ">3.30E+03"}, {"measurement": "Nx", "setting": "[2]; 5% (V/V), day 7", "value": ">3.30E+03"}, {"measurement": "Nx", "setting": "[2]; 5% (V/V), day 14", "value": ">3.30E+03"}, {"measurement": "Nx", "setting": "[2]; 5% (V/V), day 28", "value": ">3.30E+03"}, {"measurement": "Nx", "setting": "[2]; 15% (V/V), day 0", "value": ">3.30E+03"}, {"measurement": "Nx", "setting": "[2]; 15% (V/V), day 7", "value": ">3.30E+03"}, {"measurement": "Nx", "setting": "[2]; 15% (V/V), day 14", "value": "1.20E+03"}, {"measurement": "Nx", "setting": "[2]; 15% (V/V), day 28", "value": "<1.40E+02"}, {"measurement": "Nx", "setting": "[2]; 50% (V/V), day 0", "value": ">3.30E+03"}, {"measurement": "Nx", "setting": "[2]; 50% (V/V), day 7", "value": "4.95E+02"}, {"measurement": "Nx", "setting": "[2]; 50% (V/V), day 14", "value": "<1.40E+02"}, {"measurement": "Nx", "setting": "[2]; 50% (V/V), day 28", "value": "<1.40E+02"}, {"measurement": "log reduction", "setting": "[3]; 50.0%, 15.0%, 5.0% v/v, 7, 14 and 28 days, 25° C.", "value": "did not produce a measurable log reduction"}, {"measurement": "log reduction at 5 %", "setting": "[3]; 168 h, 5% (V/V), day 7", "value": "< 1.65"}, {"measurement": "log reduction at 15 %", "setting": "[3]; 168 h, 15% (V/V), day 7", "value": "< 1.65"}, {"measurement": "log reduction at 50 %", "setting": "[3]; 168 h, 50% (V/V), day 7", "value": "< 1.65"}, {"measurement": "log reduction at 5 %", "setting": "[3]; 336 h, 5% (V/V), day 14", "value": "< 1.65"}, {"measurement": "log reduction at 15 %", "setting": "[3]; 336 h, 15% (V/V), day 14", "value": "< 1.65"}, {"measurement": "log reduction at 50 %", "setting": "[3]; 336 h, 50% (V/V), day 14", "value": "< 1.65"}, {"measurement": "log reduction at 5 %", "setting": "[3]; 672 h, 5% (V/V), day 28", "value": "< 1.65"}, {"measurement": "log reduction at 15 %", "setting": "[3]; 672 h, 15% (V/V), day 28", "value": "< 1.65"}, {"measurement": "log reduction at 50 %", "setting": "[3]; 672 h, 50% (V/V), day 28", "value": "< 1.65"}, {"measurement": "Preservation Criteria A for fungi", "setting": "[3]; [4]", "value": "does not conform to Preservation Criteria A for fungi"}, {"measurement": "Nx", "setting": "[3]; 5% (V/V), day 0", "value": ">3.30E+03"}, {"measurement": "Nx", "setting": "[3]; 5% (V/V), day 7", "value": ">3.30E+03"}, {"measurement": "Nx", "setting": "[3]; 5% (V/V), day 14", "value": ">3.30E+03"}, {"measurement": "Nx", "setting": "[3]; 5% (V/V), day 28", "value": ">3.30E+03"}, {"measurement": "Nx", "setting": "[3]; 15% (V/V), day 0", "value": ">3.30E+03"}, {"measurement": "Nx", "setting": "[3]; 15% (V/V), day 7", "value": ">3.30E+03"}, {"measurement": "Nx", "setting": "[3]; 15% (V/V), day 14", "value": ">3.30E+03"}, {"measurement": "Nx", "setting": "[3]; 15% (V/V), day 28", "value": ">3.30E+03"}, {"measurement": "Nx", "setting": "[3]; 50% (V/V), day 0", "value": ">3.30E+03"}, {"measurement": "Nx", "setting": "[3]; 50% (V/V), day 7", "value": ">3.30E+03"}, {"measurement": "Nx", "setting": "[3]; 50% (V/V), day 14", "value": ">3.30E+03"}, {"measurement": "Nx", "setting": "[3]; 50% (V/V), day 28", "value": ">3.30E+03"}, {"measurement": "level at which it is a preservative, fungi", "setting": "[3]; not tested, shows a fail at 50.0%", "value": "> 60.0", "unit": "%"}]}
